The values that follow come from US6087401A, “Cyclopentenones, process for preparing the same, and the use thereof” (Takara Shuzo Co., Ltd., priority 1996, dated 2000).

In series [1] the test system is Aspergillus fumigatus TIMM 1776. Kind of series: antimicrobial activity to fungi. Format: cell-based. As to conditions: high concentrations.
Series [2] relates to HL-60 cells. Kind of series: apoptosis-inducing activity to HL-60 cells. It counts as cell-based, human. The conditions noted are these: Homo sapiens. The procedure:
(2) The cyclopentenone prepared in Example 2-(1) was used for preparing aqueous solutions of the cyclopentenone in the concentrations of 2.86 mM, 955 μM, 318 μM, 106 μM, 35 μM, 12 μM and […]. Then said heat-treated substance was adjusted to pH 7.0 with NaOH and the apoptosis-inducing activity to HL-60 cells was measured as follows.
To 1.35 ml of this suspension was added 0.15 ml of the above-mentioned cyclopentenone solution and the mixture was incubated at […] for 20 hours in the presence of 5% of carbon dioxide gas.

Series [3] deals with HL-60 cells. Briefly: cancer cell differentiation (Wright-Giemsa stain). It counts as cell-based, human. The conditions noted are these: control around 10%. The procedure: (2) To HL-60 cells was added 10^-4 μg/ml of the cyclopentenone and an incubation by the same manner as in Example 15-(1) was conducted for three days. […] The result was that the differentiated cells were around 10% in the control where no cyclopentenone was added while, in the fractions to which the cyclopentenone was added, 50% or more cells were differentiated to monocyte- or to macrophage-like cells.
The result was that the differentiated cells were around 10% in the control where no cyclopentenone was added while, in the fraction to which 0.005 μg/ml of the cyclopentenone was added, 25% or more cells were differentiated to mature bone marrow cells.

Another series deals with Mouse leukemia P-388. Briefly: life-prolonging effect, leukemia P-388. As to conditions: 10 mg/kg/day i.p., five days.
Series [4] concerns Lactobacillus homohiochii (IFO 13120). Briefly: antibacterial activity to hiochi bacteria, microorganism C. It counts as cell-based. As to conditions: five days; for Growth Turbidity (OD600): control 1.61. The procedure:
The testing microorganism was subjected to a stationary incubation for five days in an SI medium (Japan Brewery Association) containing 10% of ethanol to give a seed microorganism. The seed microorganism (0.1%) was added to 100 ml of 10% ethanol-containing SI medium to which the cyclopentenone was added in an amount of 0, 25, 50, 75 or 100 μg/ml (in terms of final concentration), then a stationary incubation was conducted for five days and the turbidity was measured. In measuring the turbidity, the value of OD600 was measured using an absorbance meter. A value of OD600 of the medium to which no testing microorganism was inoculated was deducted from the above value and this (growth turbidity) was used for the growth of the tested microorganism.
The tested microorganisms were as follows. Thus, Lactobacillus fructivorans (IFO 13118) (testing microorganism A), Lactobacillus fructivorans (JCM 1198) (testing microorganism B) and Lactobacillus homohiochii (IFO 13120) (testing microorganism C) as true hiochi bacteria while Lactobacillus rhamnosus (IFO 3532) (testing microorganism D) was used as hiochi lactobacteria.

The subject of another series is mice. As to conditions: oral, 100 mg/kg.
For series [5], the system named is Saccharomyces cerevisiae ATCC 9763. Kind of series: antimicrobial activity to fungi. Format: cell-based. As to conditions: high concentrations.
Series [6] relates to Bacillus subtilis (IFO 3034). Kind of series: growth turbidity, microorganism (17). It counts as cell-based. As to conditions: 8 h, control 267. From the text: They were testing microorganism (13): Escherichia coli HB101 (ATCC 33694); testing microorganism (14): Salmonella typhimurium LT-2 (ATCC 27106); testing microorganism (15): Pseudomonas aeruginosa (IFO 3080); testing microorganism (16): Staphylococcus aureus 3A (NCTC 8319); testing microorganism (17): Bacillus subtilis (IFO 3034); and testing microorganism (18): Streptococcus mutans (GS5; stored at National Institute of Health).
The testing microorganisms were subjected to a seed culture overnight in an L-broth (1% tryptone, 0.5% yeast extract and […]; pH 7.0). The seed culture (5 μl) was inoculated to a medium to which 25-200 μg/ml of cyclopentenone was added to 5 ml of L-both and also to a medium to which nothing was added and a shake incubation was conducted at 37° C. to measure the growth. At the initiation of the incubation and also at eight hours thereafter, turbidity of the culture was measured using a Fuji Digital Turbidimeter (sold from Fuji Kogyo KK; manufactured by Akiyama Denki Seisakusho) under the condition that the adjusted scale was 82.3 and the growth of the tested microorganism was measured from the value (growth turbidity) obtained by deducting the turbidity at the initiation of incubation from that after eight hours. Incidentally, in the case of the testing microorganism (18), a brain heart infusion was used instead of L-broth.

For the next series, the system named is Sarcoma-180. Briefly: life-prolonging effect, subcutaneous Sarcoma-180. Format: in vivo, female mice of ICR strain. As to conditions: about 80 mg/kg/day in drinking water, 40th day; control two out of eight. As for the experimental part: (2) Sixteen female mice of ICR strain of six weeks age (body weight: about 26 g) were used. Sarcoma-180 (5.5×10^6 cells/mouse) was subcutaneously injected into abdomen whereupon a control group (8 mice) and a group administered with the cyclopentenone (8 mice) were made.
The cyclopentenone was diluted with tap water and freely given to the cyclopentenone-administered group to make the dose of the cyclopentenone about 80 mg/kg/day using a water-supplying bottle. Tap water was similarly given to the control group. In both groups, feed was freely given during the course of the experiment.

For series [7], the system named is Campylobacter jejuni A3309. Kind of series: antibacterial action to Campylobacter. As to conditions: 37° C., 48 hours, read-out: concentration at which no growth of the microorganism was noted. It counts as cell-based. The procedure: (2) Campylobacter jejuni A3309 (stored at the Institute of Hygienic Sciences) was inoculated to a brain heart infusion medium (manufactured by Difco) containing 2% of calf serum (manufactured by Dainippon Seiyaku) and subjected to a shake preincubation at 37° C. for 16 hours. The culture (50 μl) was spread on 20 ml of 0.5% NaCl-containing Muller-Hinton plate medium (manufactured by BBL) containing 800, 400, 200, 100, 50, 25, 12.5, 6.25, 3.13 or 1.56 μg/ml of cyclopentenone and subjected to a stationary incubation at 37° C. for 48 hours.

The subject of the next series is EAC. Briefly: life-prolonging effect, EAC. The conditions noted are these: intraperitoneal tumor. It counts as in vivo, female mice of DDY strain.
The subject of the next series is Meth A cells. Briefly: anticancer action to solid cancer, Meth A. It counts as in vivo, female BALB/c mice. The conditions noted are these: 5 mg/kg/day s.c., five days. As for the experimental part:
The cyclopentenone mentioned in Example 3-(1) was diluted with a physiological saline solution to certain concentrations and the following tests were conducted.

Structures are written as SMILES. ≈ marks a conversion by molar mass, not a printed value. Read-outs that look alike come from different tables or passages of the source.

As for `O=C1C=CC(O)C1O` (centres unmarked) [the cyclopentenone, 4,5-dihydroxy-2-cyclopenten-1-one], the antimicrobial activity entry in [1] and in series [5] was “antimicrobial activity at high concentrations” each time. Further, the minimal effective concentration with HL-60 cells [2] (HL-60, 20 h, read-out: final concentration at which viable cell numbers and cell viability decreased) is no less than 10.6 µM; in the series on HL-60 cells [2] (HL-60, 20 hours, 35 μM solution added, read-out: final concentration at which apoptosis was induced (DNA molecular weight became small, cell shape changed)) it was 3.5 µM. For the same compound, in the series on HL-60 cells [3] (0.005 μg/ml, three or six days), the “cells differentiated to mature bone marrow cells” value is no less than 25%. Also, the “cells differentiated to monocyte- or to macrophage-like cells” value in the series on HL-60 cells [3] (10^-4 μg/ml, three days) is no less than 50%. This compound showed a life-prolonging rate in the series with Mouse leukemia P-388 of 306.1%. The compound also returned an average surviving days in the series with Mouse leukemia P-388 (control 10.3 days) of 31.4 days. In addition, the “Growth Turbidity (OD600)” value in series [4] (25 μg/ml) is given as 0.32; in series [4] (50 μg/ml), 0.08; in series [4] (75 μg/ml), 0. Further, the MIC was 75 µg/mL (≈ 657 µM) in series [4] (IFO13120, 120 h, read-out: concentration completely inhibiting growth) and no less than 12.5 µg/mL in series [7]. Moreover, the toxicity result in the series with mice is given as “not show toxicity”. Moreover, the “Growth Turbidity” value in [6] (25 μg/ml) was 145; in [6] (50 μg/ml) it was 9; in series [6] (100 μg/ml), 0; in series [6] (200 μg/ml), 0. Moreover, the “numbers of living mice (out of eight)” value with Sarcoma-180 is recorded as “seven”. Moreover, the “increase in life span” value with EAC is on record as 255%. The compound also registered a mean survival days in the series with EAC (control 15.8 days) of 40.3 days. Also, in the series with Meth A cells, the “Inhibiting Rate” value was 100.0%. Moreover, the “Tumor Weight (average ± SD)” value in the series on Meth A cells (two weeks, n=8, control 1.41 ± 0.55) came out at 0.00 ± 0.00 g.
